Laboratory results from PubChem BioAssay (NCI).
Values joined by “and” are separate entries in the source; they are usually repeats but may differ in a detail not shown here. Equal values may be shown once.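 The compound was tested at five concentrations on cells cultured in 96-well plates, with a 48-hour exposure period. The concentration for 50% growth inhibition is given as GI50. TGI marks complete inhibition of growth.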

Legend:
Experiment in all cases: NCI anticancer screen, dose series, 48 h
A549 NSCLC = test system: A549 NSCLC
ACHN renal = test system: ACHN renal
HCT-15 colon = test system: HCT-15 colon
HL-60(TB) leukemia = test system: HL-60(TB) leukemia
HOP-92 NSCLC = test system: HOP-92 NSCLC
MALME-3M melanoma = test system: MALME-3M melanoma
MDA-MB-435 = test system: MDA-MB-435
MDA-N = test system: MDA-N
RPMI-8226 leukemia = test system: RPMI-8226 leukemia
SNB-19 CNS = test system: SNB-19 CNS
UACC-257 melanoma = test system: UACC-257 melanoma

Structure (SMILES)	TGI (A549 NSCLC) [µM]	TGI (ACHN renal)	TGI (HCT-15 colon)	TGI (HL-60(TB) leukemia)	TGI (HOP-92 NSCLC)	TGI (MALME-3M melanoma) [µM]	TGI (MDA-MB-435)	TGI (MDA-N)	TGI (RPMI-8226 leukemia)	TGI (SNB-19 CNS)	TGI (UACC-257 melanoma)	GI50 (HCT-15 colon) [µM]	GI50 (HOP-92 NSCLC) [µM]	GI50 (MDA-MB-435) [µM]	GI50 (MDA-N) [µM]	GI50 (RPMI-8226 leukemia)	GI50 (SNB-19 CNS) [µM]	GI50 (UACC-257 melanoma) [µM]	GI50 (ACHN renal) [µM]
COc1ccc(C[C@@H]2OC3(C=CC(=O)C=C3)O[C@H]2Cc2ccc(OC)cc2)cc1	11.2	1.16 µM	0.77 µM	5.04 µM	1.82 µM	4.22	3.5 µM	1.62 µM	0.653 µM	5.01 µM	3.28 µM	–	–	–	–	–	–	–	–
CCCCCCCCCCCCCCCCP(=O)([O-])OCC[N+](C)(C)C	32.9	31.9 µM	16.7 µM	17.9 µM	29 µM	36.6	34.2 µM	30 µM	34.2 µM	> 57.4 µM	32.7 µM	–	–	–	–	–	–	–	–
NC(N)=NCC(N)C(=O)O (configuration not stated)	> 100	> 100 µM	> 100 µM	> 100 µM	> 100 µM	> 100	> 100 µM	> 100 µM	> 100 µM	> 100 µM	> 100 µM	–	–	–	–	–	–	–	–
OCC(O)C(O)C(O)C(O)/C=N/Nc1nc(O)c(/C=C2\C=Nc3ccccc32)[nH]1 (configuration not stated)	> 100	> 100 µM	> 100 µM	> 100 µM	> 100 µM	> 100	> 100 µM	> 100 µM	> 100 µM	> 100 µM	> 100 µM	–	–	–	–	–	–	–	–
COP(C)(=O)C(Cc1c[nH]c2ccccc12)NC(=O)OCc1ccccc1 (configuration not stated)	> 100	> 100 µM	> 100 µM	> 100 µM	> 100 µM	> 100	> 100 µM	> 100 µM	> 100 µM	> 100 µM	> 100 µM	–	–	–	–	–	–	–	–
CC1(C)c2ccccc2C(O)C12CCC(=O)CC2 (configuration not stated)	93.9	> 100 µM	> 100 µM	> 100 µM	> 100 µM	> 100	> 100 µM	> 100 µM	> 100 µM	> 100 µM	> 100 µM	–	–	–	–	–	–	–	–
CC1(C)CC[C@]2(C(=O)O)[C@H](O)C[C@]3(C)C(=CC[C@@H]4[C@@]5(C)CC[C@H](OC6OC(C(=O)O)C(O)C(O)C6O)C(C)(C)[C@@H]5CC[C@]43C)[C@@H]2C1 (some centres not stated)	> 100	> 100 µM	> 100 µM	44.9 µM	39.2 µM	> 100	> 100 µM	> 100 µM	> 100 µM	> 100 µM	> 100 µM	–	–	–	–	–	–	–	–
C=CCN1CCC2(CC1)NC(=O)c1ccccc1O2	> 100	> 100 µM	> 100 µM	> 100 µM	> 100 µM	> 100	> 100 µM	> 100 µM	> 100 µM	> 100 µM	> 100 µM	–	–	–	–	–	–	–	–
C=CC1(c2ccc(OC)cc2)OCCCO1	> 100	> 100 µM	> 100 µM	> 100 µM	> 100 µM	> 100	> 100 µM	> 100 µM	> 100 µM	> 100 µM	> 100 µM	–	–	–	–	–	–	–	–
CC(=O)C1(O)Cc2c(O)c3c(c(O)c2C(OC2CC(N)C(O)C(C)O2)C1)C(=O)c1ccccc1C3=O (configuration not stated)	0.338	0.097 µM and 0.0268 µM	0.52 µM and 0.348 µM	0.0806 µM and < 0.0108 µM	0.867 µM and 0.413 µM	0.0666	0.389 µM and 0.47 µM	0.404 µM and 0.211 µM	0.35 µM and 0.0968 µM	0.97 µM and 0.156 µM	0.451 µM and 0.324 µM	0.0156	0.0165	0.0674	0.026	0.0305 µM and < 0.0131 µM	< 0.0122	0.0377	–
CN(C)CCn1nc(N)c2nc3cc(C(F)(F)F)ccc3nc21	> 100	> 100 µM	> 100 µM	> 100 µM	> 100 µM	> 100	> 100 µM	> 100 µM	> 100 µM	> 100 µM	> 100 µM	–	–	–	–	–	–	–	–
COc1ccccc1NCC(=O)Nn1c(C)nc2ccc(S(=O)(=O)Nc3ccccc3OC)cc2c1=O	> 100	> 100 µM	> 100 µM	> 100 µM	> 100 µM	> 100	85.2 µM	> 100 µM	> 100 µM	> 100 µM	> 100 µM	–	–	–	–	–	–	–	–
O=C1OC(=O)C2C1C(c1ccccc1[N+](=O)[O-])C=C(c1ccco1)N2c1ccncc1 (configuration not stated)	31.6	3.24 µM	12.8 µM	5.63 µM	15.8 µM	40.6	52.6 µM	18.8 µM	4.4 µM	35.5 µM	6.84 µM	–	–	–	–	–	–	–	–
COc1ccccc1NS(=O)(=O)c1ccc2ncn(NS(=O)(=O)c3ccc(Cl)cc3)c(=O)c2c1	> 100	> 100 µM	> 100 µM	> 100 µM	> 100 µM	> 100	> 100 µM	> 100 µM	> 100 µM	> 100 µM	> 100 µM	–	–	–	–	–	–	–	–
O=[N+]([O-])c1ccc2ncccc2c1CCc1c([N+](=O)[O-])ccc2ncccc12	> 100	> 100 µM	> 100 µM	> 100 µM	> 100 µM	> 100	> 100 µM	> 100 µM	> 100 µM	> 100 µM	> 100 µM	–	–	–	–	–	–	–	–
CCOC(=O)CC[C@H](N)C(=O)N[C@H](Cc1ccc(N(CCCl)CCCl)cc1)C(=O)OCC	> 100	2.68 µM	10.6 µM	38.9 µM	3.24 µM	13.9	> 47.7 µM	> 43.4 µM	> 73.9 µM	99 µM	> 49.2 µM	–	–	–	–	–	–	–	0.499
CN1B(c2ccccc2)N(C)C(=O)N(C)C1=O	> 100	> 100 µM	> 100 µM	> 100 µM	> 100 µM	> 100	> 100 µM	> 100 µM	> 100 µM	> 100 µM	> 100 µM	–	–	–	–	–	–	–	–
OC(CN1CCCCC1)c1ccc(/C=C/c2ccc(Cl)cc2)cc1 (configuration not stated)	> 100	> 100 µM	76.3 µM	> 100 µM	> 100 µM	> 100	> 100 µM	> 100 µM	> 100 µM	> 100 µM	46.7 µM	–	–	–	–	–	–	–	–
CC(C)c1cccc(C(C)C)c1OS(=O)(=O)NC(=O)OC(C(F)(F)F)C(F)(F)F	> 100	> 100 µM	> 100 µM	> 100 µM	59.9 µM	> 100	> 100 µM	> 100 µM	44.8 µM	> 100 µM	> 100 µM	–	–	–	–	–	–	–	–
